Measurements reported in ChEMBL document CHEMBL1130746, “Naphthalenebis[alpha,alpha-difluoromethylenephosphonates] as potent inhibitors of protein tyrosine phosphatases” (Bioorg Med Chem Lett, 1998).
Blank lines part the entries; values can stand above or below the compound they belong to.

What was measured:
[1] = molecular target: T1, Tyrosine-protein phosphatase non-receptor type 1 (Homo sapiens, UniProt P18031); assay: Compound was evaluated for inhibitory constant against PTP1B
T1 sequence (P18031 whole entry): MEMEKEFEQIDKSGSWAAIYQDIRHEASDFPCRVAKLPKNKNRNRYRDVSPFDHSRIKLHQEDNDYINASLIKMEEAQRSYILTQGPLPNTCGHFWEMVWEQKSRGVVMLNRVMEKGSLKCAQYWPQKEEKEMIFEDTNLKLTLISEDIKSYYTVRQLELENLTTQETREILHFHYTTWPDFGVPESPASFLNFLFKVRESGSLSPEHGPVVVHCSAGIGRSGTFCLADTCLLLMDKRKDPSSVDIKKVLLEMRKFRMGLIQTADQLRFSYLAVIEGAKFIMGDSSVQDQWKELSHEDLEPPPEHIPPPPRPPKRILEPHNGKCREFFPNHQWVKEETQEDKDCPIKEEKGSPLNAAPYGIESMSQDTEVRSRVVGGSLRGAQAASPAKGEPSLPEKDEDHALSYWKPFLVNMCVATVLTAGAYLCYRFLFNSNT

[2] = molecular target: T2, Tyrosine-protein phosphatase non-receptor type 1 (Homo sapiens) (UniProt P18031); assay: Compound was evaluated for inhibition of PTP1B at a concentration of 500 uM)
T2 sequence (whole entry): T1 sequence (P18031 whole entry)

[3] = Compound was evaluated for inhibition of PP2A at a concentration of 500 uM)
[4] = molecular target: T3, Receptor-type tyrosine-protein phosphatase C (Homo sapiens) (UniProt P08575); assay: Compound was evaluated for inhibition of CD45 protein-tyrosine phosphatase at a concentration of 500 uM)
T3 sequence (whole entry): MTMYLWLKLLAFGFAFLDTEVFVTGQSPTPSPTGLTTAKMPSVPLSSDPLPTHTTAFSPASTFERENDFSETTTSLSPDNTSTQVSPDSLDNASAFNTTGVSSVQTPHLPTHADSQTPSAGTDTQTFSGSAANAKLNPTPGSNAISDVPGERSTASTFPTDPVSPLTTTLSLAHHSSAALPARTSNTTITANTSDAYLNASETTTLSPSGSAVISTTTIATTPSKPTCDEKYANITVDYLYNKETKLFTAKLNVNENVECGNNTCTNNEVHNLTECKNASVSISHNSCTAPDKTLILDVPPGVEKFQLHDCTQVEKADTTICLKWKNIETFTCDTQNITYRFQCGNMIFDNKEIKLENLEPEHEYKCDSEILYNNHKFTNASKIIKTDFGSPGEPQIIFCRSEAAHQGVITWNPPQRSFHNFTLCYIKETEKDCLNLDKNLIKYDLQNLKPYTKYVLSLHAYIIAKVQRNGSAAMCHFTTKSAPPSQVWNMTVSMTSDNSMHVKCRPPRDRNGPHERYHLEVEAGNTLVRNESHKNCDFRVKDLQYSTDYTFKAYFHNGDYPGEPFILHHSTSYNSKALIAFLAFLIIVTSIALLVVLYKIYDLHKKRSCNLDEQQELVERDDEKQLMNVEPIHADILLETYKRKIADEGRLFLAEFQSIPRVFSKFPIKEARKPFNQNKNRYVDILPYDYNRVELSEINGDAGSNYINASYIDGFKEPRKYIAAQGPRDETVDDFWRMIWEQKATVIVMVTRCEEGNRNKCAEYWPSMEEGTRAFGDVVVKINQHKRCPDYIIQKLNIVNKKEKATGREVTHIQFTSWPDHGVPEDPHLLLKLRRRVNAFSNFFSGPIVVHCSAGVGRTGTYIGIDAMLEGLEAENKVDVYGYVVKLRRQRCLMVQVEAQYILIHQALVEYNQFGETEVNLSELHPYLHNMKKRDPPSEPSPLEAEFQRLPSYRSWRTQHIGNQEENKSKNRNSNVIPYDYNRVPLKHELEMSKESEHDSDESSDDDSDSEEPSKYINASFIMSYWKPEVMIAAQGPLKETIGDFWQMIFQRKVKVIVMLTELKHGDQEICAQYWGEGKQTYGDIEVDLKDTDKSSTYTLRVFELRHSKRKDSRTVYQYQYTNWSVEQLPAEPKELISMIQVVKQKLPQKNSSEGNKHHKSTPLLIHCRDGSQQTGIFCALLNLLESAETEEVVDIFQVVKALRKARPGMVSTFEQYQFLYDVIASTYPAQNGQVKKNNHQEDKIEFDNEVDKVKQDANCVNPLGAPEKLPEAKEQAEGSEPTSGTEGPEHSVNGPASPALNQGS

[5] = molecular target: T4, Receptor-type tyrosine-protein phosphatase C (Homo sapiens, UniProt P08575); assay: Compound was evaluated for 50% inhibition of CD45 protein-tyrosine phosphatase using uM)
T4 sequence (P08575 whole entry): T3 sequence (whole entry)

[6] = Compound was evaluated for 50% inhibition of PP2A, a serine/threonine phosphatase using uM)
[7] = molecular target: T1, Tyrosine-protein phosphatase non-receptor type 1; assay: Compound was evaluated for 50% inhibition of PTP1B using uM)
[8] = molecular target: T4, Receptor-type tyrosine-protein phosphatase C; assay: Compound was evaluated for inhibitory constant against CD45
[9] = molecular target: T4, Receptor-type tyrosine-protein phosphatase C; assay: Compound was evaluated for 50% inhibition of CD45 using uM)
[10] = molecular target: T3, Receptor-type tyrosine-protein phosphatase C (Homo sapiens); assay: Compound was evaluated for inhibition of CD45 at a concentration of 500 uM)

Compound: O=P(O)(O)C(F)(F)c1cc(O)c2ccccc2c1
Ki [1]: 93 µM

Compound: O=P(O)(O)C(F)(F)c1cccc2c(C(F)(F)P(=O)(O)O)cccc12
inhibition [2]: 51%
inhibition [3]: 77%
inhibition [4]: 26%

Compound: O=P(O)(O)C(F)(F)c1cc(C(F)(F)P(=O)(O)O)c2ccccc2c1
inhibition [2]: 81%
inhibition [3]: 66%
inhibition [4]: 78%

Compound: O=P(O)(O)C(F)(F)c1cccc2ccccc12
Ki [1]: 255 µM
inhibition [2]: 83%
inhibition [3]: 52%
IC50 [9]: > 1000 µM
IC50 [6]: 636 µM
inhibition [10]: 20%
IC50 [7]: 112 µM

Compound: O=P(O)(O)C(F)(F)c1ccc2c(C(F)(F)P(=O)(O)O)cccc2c1
inhibition [2]: 89%
inhibition [3]: 75%
inhibition [4]: 70%

Compound: O=P(O)(O)C(F)(F)c1ccc2ccccc2c1
Ki [1]: 197 µM
inhibition [2]: 84%
inhibition [3]: 39%
IC50 [9]: > 1000 µM
IC50 [6]: 753 µM
inhibition [10]: 5%
IC50 [7]: 95 µM

The next lines start with the values.

inhibition [2]: 100%
inhibition [3]: 70%
IC50 [5]: > 100 µM
IC50 [6]: 354 µM
IC50 [7]: 29 µM
inhibition [4]: 62%
Compound: O=P(O)(O)C(F)(F)c1ccc2cc(C(F)(F)P(=O)(O)O)ccc2c1

Ki [8]: 9 µM
inhibition [2]: 98%
inhibition [3]: 61%
IC50 [9]: 27 µM
IC50 [6]: 481 µM
IC50 [7]: 118 µM
inhibition [4]: 99%
Compound: O=P(O)(O)C(F)(F)c1ccc2cccc(C(F)(F)P(=O)(O)O)c2c1

IC50 [5]: 500 µM
IC50 [7]: > 500 µM
Compound: O=P(O)(O)Cc1ccc2ccc(CP(=O)(O)O)cc2c1

Ki [1]: 16 µM
inhibition [2]: 100%
inhibition [3]: 70%
IC50 [9]: 180 µM
IC50 [6]: 306 µM
inhibition [10]: 64%
Compound: O=P(O)(O)C(F)(F)c1ccc2ccc(C(F)(F)P(=O)(O)O)cc2c1

IC50 [5]: 279 µM
IC50 [7]: 130 µM
Compound: O=P(O)(O)C(F)c1ccc2ccc(C(F)P(=O)(O)O)cc2c1 (configuration not stated)
